Data as given in patent US7001770B1, “Calpain inhibitors and their applications” (priority 1998, dated 2006).
Square brackets hold non-standard residues; d marks the D form. Peptide text beside a SMILES is read from it. Nle = CCCC[C@H](N)C(=O)O

Key:
[1] = tested on: p53 levels in cell lines with endogenous wildtype and mutated p53 status; assay: Western blot of p53 levels; assay type: cell-based; conditions: in response to calpain inhibitor 1 (FIG. 5)
[2] = tested on: JC (mouse mammary carcinoma, p53 mutant) cells; assay: Rodent cancer model, flank tumors; assay type: in vivo, mice; conditions: calpain inhibitor alone, 60 mg/kg intraperitoneal
Method: The in vitro results presented above were confirmed in a rodent cancer model. Briefly, healthy immune competent mice were injected with JC (mouse mammary carcinoma, p53 mutant) cells and tumors were permitted to form. This is a particularly rigorous model as JC cells are particularly difficult to infect and the mouse is an immunocompetent mouse capable of producing an immune response to the human adenovirus and/or the human p53 transgene. After 2 weeks, flank tumors were present in all animals. Calpain inhibitor was administered via intraperitoneal injection to a concentration of approximately 60 mg/kg approximately 24 hours prior to administration of the recombinant rAd-p53 virus. Appropriate control viruses and solutions were employed. The mice were injected with 1×10^10 particles of rAd-p53 per injection intratumorally in combination with intraperitoneally injected CI-1 at a concentration of 60 mg/kg for a period of 5 days, 2 days off and then for 5 more days. Tumor growth/regression was evaluated at Day 4, Day 8 and Day 11 post-treatment (FIGS. 12 A,B and C respectively). In all instances the rate of decrease in tumor growth was at least 40% reduction in fold increase in tumor volume in mice treated with calpain inhibitor 1 in addition to FTCB, in comparison with the mice treated with the FTCB vector alone.

CTL response = assay: In vivo CTL response to recombinant adenoviral vector (51Cr release); set-up: species or system C57BL/6 mice; conditions: for CTL response to the adenoviral vector: 60 mg/Kg or 120 mg/Kg calpain inhibitor 1, 9×10^9 particles/animal iv, spleens day 10
Method: FIG. 11 is a graphical results of the cytotoxicity assay of CTL against ACN53 transduced EL-4 targets in C57/B16 mice injected with 60 mg/Kg (A) or 120 mg/Kg (♦) calpain inhibitor 1 in combination with ACN53 as more fully described in Example 7 herein. Percent lysis is plotted on the vertical axis and time on the horizontal axis. The ACN53 alone is represented by the circles (●) and the naive control level is represented by the squares (▪).
The applicants hypothesized that the combined effect on MHC Class 1 presentation and apoptosis of non-transduced will reduce the immune response to the viral vectors. This was confirmed in a in vivo mouse model in substantial accordance with the teaching of example […] herein. The results are shown in the FIG. 8 of the attached drawings.
C57BU6 mice (2 mice per dose) were injected intravenously with 9×10^9 particles/animal (iv/200 μl) of a recombinant adenoviral vector encoding the βgal reporter gene under control of the CMV promoter. Naive mice were employed as controls. The spleens were harvested at day 10 for immunological analysis. Livers were harvested for analysis of β-gal transgene expression. Cells were be dispersed to a single cell suspension and washed 3 times. The cells were be resuspended complete RPMI-10 (RPMI+10% FCS, 2ME (5 μM), glutamine, Na pyruvate, Pen/Strep). Responder CTL cells were seeded in 24-well plates at 8×10^6 cells per well in 1.5 ml RPMI-5%. The responder CTL cells were restimulated by adding syngeneic (C57BL/6) spleen cells that were transduced for 6 hours with 2×10^10 BGCG particles/ml and then mitomycin treated to inhibit proliferation and/or activation of stimulator cell populations. The responder CTL were co-cultured with the stimulator cells at 37° C. in a humidified incubator for seven days. […] The Effector CTL cells were harvested, washed 2 times and counted to enumerate the CTL effector cells. […] The Effector CTL cells were co-cultivated with the target cells for 6 hours and the specific ^51Cr release were determined by counting harvested supernates (100 μl) in the γ counter.

For `CCCC[C@@H](C=O)NC(=O)[C@H](CC(C)C)NC(=O)[C@H](CC(C)C)NC(C)=O` [CI-1, N-acetyl-leu-leu-norleucinal] (Ac-Leu-Leu-[Nle]-aldehyde), the “increase in p53 levels” value [1] was 2–5 ×, the antitumor effects [2] was “significant antitumor effects” and the “CTL response to the adenoviral vector” value (CTL response) was “significant inhibition”. The “CTL response to the adenoviral vector” value (CTL response; listed as calpain inhibitor 1) was “substantially reduced” and the “relative number of CTL lytic-units (effector to target ratio giving 25% killing)” value (CTL response; treatment with calpain inhibitor CI-1, BGCG injected mice) was “greater than a five-fold decrease”.
